Where two headings read alike, the source gives them in different places.
Tests used:
[1] = biological target: T1, Hsp104 (Saccharomyces cerevisiae, UniProt P31539); assay type: binding, yeast
[2] = biological target: 35S-PrPC (Mesocricetus auratus, UniProt P04273); assay type: biochemical, hamster
[3] = biological target: Sup35 (Saccharomyces cerevisiae, UniProt P05453); assay: Circular dichroism spectral shifts of mixtures with Sup35; assay type: binding, yeast; conditions: LSB1; 1 hr, 1 mM ATP, 37° C.
Sequence of Sup35 (P05453 whole entry): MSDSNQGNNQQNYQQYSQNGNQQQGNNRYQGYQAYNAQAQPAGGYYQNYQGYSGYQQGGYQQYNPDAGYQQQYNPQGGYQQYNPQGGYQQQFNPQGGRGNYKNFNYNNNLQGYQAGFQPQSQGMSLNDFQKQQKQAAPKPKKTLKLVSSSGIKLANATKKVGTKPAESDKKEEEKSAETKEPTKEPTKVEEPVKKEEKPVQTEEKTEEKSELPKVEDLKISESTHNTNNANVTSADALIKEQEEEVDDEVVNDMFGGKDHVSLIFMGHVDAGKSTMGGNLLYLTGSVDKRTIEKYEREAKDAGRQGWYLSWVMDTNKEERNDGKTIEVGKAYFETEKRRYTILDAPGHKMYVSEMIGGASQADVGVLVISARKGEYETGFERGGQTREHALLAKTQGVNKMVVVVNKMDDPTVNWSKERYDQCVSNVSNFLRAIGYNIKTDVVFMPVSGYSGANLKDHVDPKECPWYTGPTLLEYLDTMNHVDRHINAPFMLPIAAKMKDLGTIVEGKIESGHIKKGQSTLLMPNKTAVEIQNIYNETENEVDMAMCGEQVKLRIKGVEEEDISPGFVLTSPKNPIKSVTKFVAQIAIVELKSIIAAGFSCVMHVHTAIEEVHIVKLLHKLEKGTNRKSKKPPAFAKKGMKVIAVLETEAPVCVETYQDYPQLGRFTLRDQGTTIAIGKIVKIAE
Description: Reactions were incubated for 1 hr with 1 mM ATP at 37° C., and transferred to a 0.1 mm path-length cuvette. Spectra were recorded at 25° C. in a Jasco 715 spectropolarimeter (bandwidth 1.0 nm, response time 16 sec, speed 20 nm/min, step resolution 0.2 nm, accumulations 4).

[4] = biological target: rPrPβ (Mesocricetus auratus, UniProt P04273); assay type: binding, hamster; conditions: LSB2; each at 0.5 mg/ml; 37° C. for 1 hr
Sequence of rPrPβ (P04273 90-231 limits assumed): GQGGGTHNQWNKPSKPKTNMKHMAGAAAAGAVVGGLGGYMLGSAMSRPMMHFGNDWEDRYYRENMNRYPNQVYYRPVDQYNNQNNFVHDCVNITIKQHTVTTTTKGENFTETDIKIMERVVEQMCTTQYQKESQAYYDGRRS

[5] = biological target: T1, Hsp104; assay type: biochemical, yeast
[6] = reactions seeded with untreated PrPSc
[7] = reactions seeded with partially denatured PrPSc

Sequence of 35S-PrPC (P04273 23-231 limits assumed): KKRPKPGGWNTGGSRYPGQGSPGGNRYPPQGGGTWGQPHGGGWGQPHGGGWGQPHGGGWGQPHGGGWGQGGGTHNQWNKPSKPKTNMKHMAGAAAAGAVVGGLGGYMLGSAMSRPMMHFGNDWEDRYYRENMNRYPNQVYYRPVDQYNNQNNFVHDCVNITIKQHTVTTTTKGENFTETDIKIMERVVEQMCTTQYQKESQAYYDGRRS
T1 sequence (P31539 whole entry, looked up): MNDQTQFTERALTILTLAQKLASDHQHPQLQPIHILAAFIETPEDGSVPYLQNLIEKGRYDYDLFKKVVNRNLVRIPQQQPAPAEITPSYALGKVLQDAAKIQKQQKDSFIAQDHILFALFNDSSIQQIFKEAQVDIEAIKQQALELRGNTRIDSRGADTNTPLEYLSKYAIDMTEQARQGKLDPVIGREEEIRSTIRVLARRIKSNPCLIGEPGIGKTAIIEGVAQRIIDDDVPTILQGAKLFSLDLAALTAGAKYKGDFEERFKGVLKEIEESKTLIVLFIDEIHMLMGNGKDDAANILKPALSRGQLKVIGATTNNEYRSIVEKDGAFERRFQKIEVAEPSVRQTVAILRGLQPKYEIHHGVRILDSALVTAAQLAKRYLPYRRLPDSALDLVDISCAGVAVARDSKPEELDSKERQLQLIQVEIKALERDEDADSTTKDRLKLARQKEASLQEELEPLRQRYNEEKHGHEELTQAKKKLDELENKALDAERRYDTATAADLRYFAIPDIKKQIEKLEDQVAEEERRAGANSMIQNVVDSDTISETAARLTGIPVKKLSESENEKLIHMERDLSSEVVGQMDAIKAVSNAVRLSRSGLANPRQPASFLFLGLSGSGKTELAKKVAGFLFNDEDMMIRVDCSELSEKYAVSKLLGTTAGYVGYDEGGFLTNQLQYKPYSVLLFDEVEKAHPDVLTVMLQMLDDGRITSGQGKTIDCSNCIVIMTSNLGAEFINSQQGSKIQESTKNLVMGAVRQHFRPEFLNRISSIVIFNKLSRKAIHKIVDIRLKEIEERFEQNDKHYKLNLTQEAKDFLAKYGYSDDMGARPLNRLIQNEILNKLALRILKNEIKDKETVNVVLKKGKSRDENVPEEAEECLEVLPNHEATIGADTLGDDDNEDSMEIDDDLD

Molecule	effect of chemical chaperones on 35S-PrPC conversion [2, 6]	effect of chemical chaperones on 35S-PrPC conversion ([2]; reactions without PrPSc)	effect of chemical chaperones on 35S-PrPC conversion [2, 7]	CD spectrum of mixture with rPrPβ compared with predicted spectrum [4]	also measured
Nc1ncnc2c1ncn2[C@@H]1O[C@H](COP(=O)(O)OP(=O)(O)OP(=O)(O)O)[C@@H](O)[C@H]1O [ATP]	–	–	–	–	rate of change in CD spectrum with Sup35 and Hsp104 [1]: markedly increased the rate
C[S+](C)[O-] [DMSO, dimethyl sulfoxide]	None of the compounds tested affected	None of the compounds tested affected	–	–	effect on conversion ([2]; partially denatured PrPSc, higher levels (up to 30%)): virtually eliminated conversion; stimulation of conversion ([2]; partially denatured PrPSc, intermediate levels (1-3%)): 2-3 fold
OCC(O)CO [glycerol]	None of the compounds tested affected	None of the compounds tested affected	no effect	–	–
OC[C@H]1O[C@@](CO)(O[C@H]2O[C@H](CO)[C@@H](O)[C@H](O)[C@H]2O)[C@@H](O)[C@@H]1O [sucrose]	None of the compounds tested affected	None of the compounds tested affected	inhibited conversion	–	–
OC[C@H]1O[C@H](O[C@H]2O[C@H](CO)[C@@H](O)[C@H](O)[C@H]2O)[C@H](O)[C@@H](O)[C@@H]1O [trehalose]	None of the compounds tested affected	None of the compounds tested affected	inhibited conversion	–	–
α-2 macroglobulin	–	–	–	much smaller	CD spectrum of mixture with Hsp104 compared with predicted spectrum [1]: observed spectra matched the predicted spectra; CD spectrum of mixture with Sup35 compared with predicted spectrum [3]: observed spectra matched the predicted spectra
α-lactalbumin	–	–	–	much smaller	CD spectrum of mixture with Hsp104 compared with predicted spectrum [1]: observed spectra matched the predicted spectra; CD spectrum of mixture with Sup35 compared with predicted spectrum [3]: observed spectra matched the predicted spectra
β-amyloid 1-40: a less amyloidogenic derivative of β-amyloid	–	–	–	–	effect on the ATPase activity of Hsp104 (in words) [5]: Less inhibition
β-amyloid 1-42: amyloidogenic peptide, fragment found in neural plaques associated with Alzheimer's disease	–	–	–	–	effect on the ATPase activity of Hsp104 (in words) [5]: inhibited
β-galactosidase	–	–	–	much smaller	–

From patent US7799535B1 (priority 1997, dated 2010)
